Assay results from ChEMBL document CHEMBL1133829, “Design and synthesis of a novel class of histone deacetylase inhibitors” (Bioorg Med Chem Lett, 2001).

How the values were obtained:
HCT-116 = experiment: In vitro antiproliferative activity against human colon cancer HCT 116 cells determined by […] assay; format: functional, cell-based
Histone deacetylase 1 [1] = target: T1, Histone deacetylase 1 (Homo sapiens, UniProt Q13547); experiment: Concentration of compound required for acetylation of histone-4 in human T24 cancer cells; format: functional, cell-based, Cancer cell lines
Histone deacetylase 1 [2] = target: T1, Histone deacetylase 1; experiment: In vitro inhibition of partially purified recombinant human Histone deacetylase 1
Mus musculus [3] = experiment: In vivo inhibition of non small cell lung carcinoma A549 tumor in nude mice administered with a daily dose of 20 mg/kg for 21 days; format: functional; conditions: A549, 504 h
Mus musculus [4] = experiment: In vivo inhibition of non small cell lung carcinoma A549 tumor in nude mice administered with a daily dose of 50 mg/kg for 21 days; format: functional; conditions: A549, 504 h
Mus musculus [5] = experiment: In vivo inhibition of non small cell lung carcinoma A549 tumor in nude mice administered with a daily dose of 40 mg/kg for 21 days; format: functional; conditions: A549, 504 h

T1 sequence (Q13547 whole entry): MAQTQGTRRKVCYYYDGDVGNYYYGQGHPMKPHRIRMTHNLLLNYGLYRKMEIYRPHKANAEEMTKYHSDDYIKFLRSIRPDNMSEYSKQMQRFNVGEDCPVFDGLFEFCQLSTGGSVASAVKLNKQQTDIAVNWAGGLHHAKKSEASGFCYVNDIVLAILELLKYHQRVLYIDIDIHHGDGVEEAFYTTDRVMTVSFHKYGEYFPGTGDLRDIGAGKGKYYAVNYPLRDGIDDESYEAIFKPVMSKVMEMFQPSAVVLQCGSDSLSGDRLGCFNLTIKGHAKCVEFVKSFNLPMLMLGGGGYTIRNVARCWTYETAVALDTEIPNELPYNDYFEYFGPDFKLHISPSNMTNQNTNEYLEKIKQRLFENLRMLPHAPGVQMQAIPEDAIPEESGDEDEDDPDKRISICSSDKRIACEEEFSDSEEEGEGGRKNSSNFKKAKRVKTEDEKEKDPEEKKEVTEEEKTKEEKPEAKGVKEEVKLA

| Compound | EC50 (HCT-116) [nM] | EC50 (Histone deacetylase 1 [1]) [nM] | IC50 (Histone deacetylase 1 [2]) [nM] | inhibition in vivo at 20 mg/kg (Mus musculus [3]) [%] | inhibition in vivo at 50 mg/kg (Mus musculus [4]) [%] | inhibition in vivo at 40 mg/kg (Mus musculus [5]) [%] |
| --- | --- | --- | --- | --- | --- | --- |
| O=C(/C=C/c1ccc(NS(=O)(=O)c2ccccc2)cc1)NO | 3000 | – | – | – | – | – |
| O=C(Cc1ccc(NS(=O)(=O)c2ccccc2)cc1)NO | 22000 | > 25000 | 1000 | – | – | – |
| O=C(/C=C/c1ccc(NS(=O)(=O)c2ccc(Cl)cc2Cl)cc1)NO | 4000 | > 25000 | – | – | – | – |
| O=C(/C=C/c1ccc(NS(=O)(=O)c2ccc(Cl)c(Cl)c2)cc1)NO | 2000 | 5000 | 100 | – | – | – |
| CC(C)C(Cc1ccc(NS(=O)(=O)c2ccccc2)cc1)C(=O)NO (stereo unspecified) | 30000 | > 25000 | > 25000 | – | – | – |
| O=C(CCc1ccc(NS(=O)(=O)c2ccccc2)cc1)NO | 2000 | 5000 | – | – | – | – |
| CC(/C=C/C(=O)NO)=C\[C@@H](C)C(=O)c1ccc(N(C)C)cc1 [TRICHOSTATIN] | 1000 | – | – | – | – | – |

Further molecules by falling EC50 (HCT-116), results first:

| EC50 (HCT-116) [nM] | EC50 (Histone deacetylase 1 [1]) [nM] | IC50 (Histone deacetylase 1 [2]) [nM] | Compound | inhibition in vivo at 20 mg/kg (Mus musculus [3]) [%] | inhibition in vivo at 50 mg/kg (Mus musculus [4]) [%] | inhibition in vivo at 40 mg/kg (Mus musculus [5]) [%] |
| --- | --- | --- | --- | --- | --- | --- |
| 1000 | – | – | O=C(/C=C/c1ccc(NS(=O)(=O)c2ccc(Cl)cc2)cc1)NO | – | – | – |
| 700 | 10000 | – | Cc1ccc(S(=O)(=O)Nc2ccc(/C=C/C(=O)NO)cc2)cc1 | – | – | – |
| 400 | 5000 | 60 | COc1ccc(S(=O)(=O)Nc2ccc(/C=C/C(=O)NO)cc2)cc1 | – | – | – |
| 200 | 1000 | – | COc1ccc(S(=O)(=O)Nc2ccc(/C=C/C(=O)NO)cc2)cc1OC | 41 | 57 | 50 |
